Non-standard residues stand in square brackets, D forms with d. Residues, ends and D or L forms follow the SMILES beside them. Primed or numbered codes have the meaning given here. *: point of attachment. DO3A10CM(3) = metal chelator group attached at the N-terminus (X in table rows); DOTA = O=C(O)CN1CCN(CC(=O)O)CCN(CC(=O)*)CCN(CC(=O)O)CC1; Bpa = N[C@@H](Cc1ccc(C(=O)c2ccccc2)cc1)C(=O)O; Ala(4-thiazolyl) = N[C@@H](Cc1cscn1)C(=O)O; d2Nal = N[C@H](Cc1ccc2ccccc2c1)C(=O)O; d3Pal = N[C@H](Cc1cccnc1)C(=O)O; DO3A10CM = not defined here; Nicotinoyl = O=C(c1cccnc1)*; azaGly = NNC(=O)O; Sar = CNCC(=O)O
B1: BRU-2437 (peptide)
peptide: XHWSHXWYPX
HELM: PEPTIDE1{[Glp].H.W.S.H.[dK].W.Y.P.[O=C(NN[*:1])[*:2]].[am]}$$$$V2.0
SMILES: NCCCC[C@@H](NC(=O)[C@H](Cc1c[nH]cn1)NC(=O)[C@H](CO)NC(=O)[C@H](Cc1c[nH]c2ccccc12)NC(=O)[C@H](Cc1c[nH]cn1)NC(=O)[C@@H]1CCC(=O)N1)C(=O)N[C@@H](Cc1c[nH]c2ccccc12)C(=O)N[C@@H](Cc1ccc(O)cc1)C(=O)N1CCC[C@H]1C(=O)NNC(N)=O
B2: BRU-2989 (peptide)
peptide: XRWSHXWXPG
modifications: DO3A10CM on N-terminus; AA1 Dnal2; AA6 Darg; AA8 Bpa4; C-terminal Gly-Az23(py2)2po-Ap
B3: BRU-2970 (peptide)
peptide: XRWSHXWXP
modifications: DO3A10CM on N-terminus; AA1 Dnal2; AA6 Darg; AA8 Bpa4; AA10 Aeh2 (aminoethanol; printed Ach2 in paragraph 138)
B4: BRU-3019 (peptide)
peptide: XRWSHXWXP
modifications: not fully specified; DO3A10CM on N-terminus; AA1 Dnal2 (Table 6; Sar in paragraph 138); AA6 Darg; AA8 Bpa4; AA10 Az23po-Dabt14
B5: BRU-3022 (peptide)
peptide: XRWSHXWXP
modifications: not fully specified; DO3A10CM on N-terminus; AA1 Dnal2 (Table 6; Sar in paragraph 138); AA6 Darg; AA8 Bpa4; AA10 Az23po-Da15o3pt

These molecules were tested on LHRH binding sites on human ovarian cancer cells (EFO-27) (assay: not given). Conditions: not given.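 Also: Cell-associated radioactivity on confluent EFO-27 monolayers in 96-well plates, measured by microplate scintillation counting.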

Molecule | EC50 [nM]
CN(CC(=O)N[C@@H](Cc1cscn1)C(=O)N[C@@H](Cc1c[nH]c2ccccc12)C(=O)N[C@@H](CO)C(=O)N[C@@H](Cc1cscn1)C(=O)N[C@H](CCCNC(=N)N)C(=O)N[C@@H](Cc1c[nH]c2ccccc12)C(=O)N[C@@H](Cc1ccc(C(=O)c2ccccc2)cc1)C(=O)N1CCC[C@H]1C(=O)NNC(N)=O)C(=O)CN1CCN(CC(=O)O)CCN(CC(=O)O)CCN(CC(=O)O)CC1 [BRU-2762] ({DOTA}-[Sar][Ala(4-thiazolyl)]WS[Ala(4-thiazolyl)][dR]W[Bpa]P[azaGly]-NH2; C-terminus assumed) | 15000
N=C(N)NCCC[C@H](NC(=O)[C@@H](Cc1ccc2ccccc2c1)NC(=O)CN1CCN(CC(=O)O)CCN(CC(=O)O)CCN(CC(=O)O)CC1)C(=O)N[C@@H](Cc1c[nH]c2ccccc12)C(=O)N[C@@H](CC(=O)O)C(=O)N[C@@H](Cc1c[nH]cn1)C(=O)N[C@H](CCCNC(=N)N)C(=O)N[C@@H](Cc1c[nH]c2ccccc12)C(=O)N[C@@H](Cc1ccc(C(=O)c2ccccc2)cc1)C(=O)N1CCC[C@H]1C(=O)NNC(N)=O [BRU-2954] ({DOTA}-[d2Nal]RWDH[dR]W[Bpa]P[azaGly]-NH2) | 4200
CNCC(=O)N[C@@H](Cc1c[nH]cn1)C(=O)N[C@@H](Cc1c[nH]c2ccccc12)C(=O)N[C@@H](CO)C(=O)N[C@@H](Cc1c[nH]cn1)C(=O)N[C@H](CCCNC(=N)N)C(=O)N[C@@H](Cc1c[nH]c2ccccc12)C(=O)N[C@@H](Cc1ccc(C(=O)c2ccccc2)cc1)C(=O)N1CCC[C@H]1C(=O)NCCNC(=O)CN1CCN(CC(=O)O)CCN(CC(=O)O)CCN(CC(=O)O)CC1 [compound 3079] | 590 ± 260
N=C(N)NCCC[C@H](NC(=O)[C@@H](Cc1ccc2ccccc2c1)NC(=O)CN1CCN(CC(=O)O)CCN(CC(=O)O)CCN(CC(=O)O)CC1)C(=O)N[C@@H](Cc1c[nH]c2ccccc12)C(=O)N[C@@H](CO)C(=O)N[C@@H](CCCNC(N)=O)C(=O)N[C@H](CCCNC(=N)N)C(=O)N[C@@H](Cc1c[nH]c2ccccc12)C(=O)N[C@@H](Cc1ccc(C(=O)c2ccccc2)cc1)C(=O)N1CCC[C@H]1C(=O)NNC(N)=O [BRU-3030] | 930
CN(C(=O)CN1CCN(CC(=O)O)CCN(CC(=O)O)CCN(CC(=O)O)CC1)[C@H](Cc1ccc2ccccc2c1)C(=O)N[C@@H](CCCNC(=N)N)C(=O)N[C@@H](Cc1c[nH]c2ccccc12)C(=O)N[C@@H](CO)C(=O)N[C@@H](Cc1c[nH]cn1)C(=O)N[C@H](CCCNC(=N)N)C(=O)N[C@@H](Cc1c[nH]c2ccccc12)C(=O)N[C@@H](Cc1ccc(C(=O)c2ccccc2)cc1)C(=O)N1CCC[C@H]1C(=O)NNC(N)=O [BRU-2965] | 580
CN(CC(=O)N[C@@H](Cc1c[nH]cn1)C(=O)N[C@@H](Cc1c[nH]c2ccccc12)C(=O)N[C@@H](CO)C(=O)N[C@@H](Cc1c[nH]cn1)C(=O)N[C@H](CCCNC(=N)N)C(=O)N[C@@H](Cc1c[nH]c2ccccc12)C(=O)N[C@@H](Cc1ccc(CN)cc1)C(=O)N1CCC[C@H]1C(=O)NNC(N)=O)C(=O)CN1CCN(CC(=O)O)CCN(CC(=O)O)CCN(CC(=O)O)CC1 [BRU-2760] | 3550
N=C(N)NCCC[C@H](NC(=O)[C@@H](Cc1ccc2ccccc2c1)NC(=O)CN1CCN(CC(=O)O)CCN(CC(=O)O)CCN(CC(=O)O)CC1)C(=O)N[C@@H](Cc1c[nH]c2ccccc12)C(=O)N[C@@H](CO)C(=O)N[C@@H](Cc1c[nH]cn1)C(=O)N[C@H](CCCNC(=N)N)C(=O)N[C@@H](Cc1c[nH]c2ccccc12)C(=O)N[C@@H](Cc1ccc(C(=O)c2ccccc2)cc1)C(=O)N1C[C@H](O)C[C@H]1C(=O)NNC(N)=O [compound 2952] | 280
CNCC(=O)N[C@@H](CCCNC(=N)N)C(=O)N[C@@H](Cc1c[nH]c2ccccc12)C(=O)N[C@@H](CO)C(=O)N[C@@H](Cc1c[nH]cn1)C(=O)N[C@H](CCCNC(=N)N)C(=O)N[C@@H](Cc1c[nH]c2ccccc12)C(=O)N[C@@H](Cc1ccc(C(=O)c2ccccc2)cc1)C(=O)N1CCC[C@H]1C(=O)NCCCCNC(=O)CN1CCN(CC(=O)O)CCN(CC(=O)O)CCN(CC(=O)O)CC1 [compound 3041] | 360 ± 20
CN(CC(N)=O)NC(=O)[C@@H]1CCCN1C(=O)[C@H](Cc1ccc(C(=O)c2ccccc2)cc1)NC(=O)[C@H](Cc1c[nH]c2ccccc12)NC(=O)[C@@H](CCCNC(=N)N)NC(=O)[C@H](Cc1c[nH]cn1)NC(=O)[C@H](CO)NC(=O)[C@H](Cc1c[nH]c2ccccc12)NC(=O)[C@H](CCCNC(=N)N)NC(=O)[C@@H](Cc1ccc2ccccc2c1)NC(=O)CN1CCN(CC(=O)O)CCN(CC(=O)O)CCN(CC(=O)O)CC1 [compound 2967] | 440
CN(CC(=O)N[C@@H](Cc1c[nH]cn1)C(=O)N[C@@H](Cc1c[nH]c2ccccc12)C(=O)N[C@@H](CO)C(=O)N[C@@H](Cc1c[nH]cn1)C(=O)N[C@H](CCCNC(=N)N)C(=O)N[C@@H](Cc1c[nH]c2ccccc12)C(=O)N[C@@H](Cc1ccc(C(=NO)c2ccccc2)cc1)C(=O)N1CCC[C@H]1C(=O)NNC(N)=O)C(=O)CN1CCN(CC(=O)O)CCN(CC(=O)O)CCN(CC(=O)O)CC1 [BRU-2907] | 1900
CN(CC(=O)N[C@@H](Cc1c[nH]cn1)C(=O)N[C@@H](Cc1c[nH]c2ccccc12)C(=O)N[C@@H](CO)C(=O)N[C@@H](Cc1c[nH]cn1)C(=O)N[C@H](CCCNC(=N)N)C(=O)N[C@@H](Cc1c[nH]c2ccccc12)C(=O)N[C@@H](Cc1ccc(C(C)(C)C)cc1)C(=O)N1CCC[C@H]1C(=O)NNC(N)=O)C(=O)CN1CCN(CC(=O)O)CCN(CC(=O)O)CCN(CC(=O)O)CC1 [BRU-2634] | 980

Same assay, conditions: EFO-27 cells, competition with [125I-Tyr8]BRU-2477, 90 min

Molecule | EC50 [nM]
CN(CC(=O)N[C@@H](Cc1c[nH]cn1)C(=O)N[C@@H](Cc1c[nH]c2ccccc12)C(=O)N[C@@H](CO)C(=O)N[C@@H](Cc1c[nH]cn1)C(=O)N[C@H](CCCCNC(=N)N)C(=O)N[C@@H](Cc1c[nH]c2ccccc12)C(=O)N[C@@H](Cc1ccc(C(=O)c2ccccc2)cc1)C(=O)N1CCC[C@H]1C(=O)NNC(N)=O)C(=O)CN1CCN(CC(=O)O)CCN(CC(=O)O)CCN(CC(=O)O)CC1 [BRU-2893] | 2600
CCN=C(NCC)NCCCC[C@@H](NC(=O)[C@H](Cc1c[nH]cn1)NC(=O)[C@H](CO)NC(=O)[C@H](Cc1c[nH]c2ccccc12)NC(=O)[C@H](Cc1c[nH]cn1)NC(=O)CN(C)C(=O)CN1CCN(CC(=O)O)CCN(CC(=O)O)CCN(CC(=O)O)CC1)C(=O)N[C@@H](Cc1c[nH]c2ccccc12)C(=O)N[C@@H](Cc1ccc(C(=O)c2ccccc2)cc1)C(=O)N1CCC[C@H]1C(=O)NNC(N)=O [BRU-2880] | 8020
N=C(N)NCCC[C@H](NC(=O)[C@@H](Cc1ccc2ccccc2c1)NC(=O)CN1CCN(CC(=O)O)CCN(CC(=O)O)CCN(CC(=O)O)CC1)C(=O)N[C@@H](Cc1c[nH]c2ccccc12)C(=O)N[C@@H](CO)C(=O)N[C@@H](Cc1c[nH]cn1)C(=O)N[C@H](CCCNC(=N)N)C(=O)N[C@@H](Cc1c[nH]c2ccccc12)C(=O)N[C@@H](Cc1ccc(C(=O)c2ccccc2)cc1)C(=O)N1CCC[C@H]1C(=O)NCC(=O)NCCCCO [compound 2986] | 1660
N=C(N)NCCC[C@H](NC(=O)[C@H](Cc1ccc(OP(=O)(O)O)cc1)NC(=O)CN1CCN(CC(=O)O)CCN(CC(=O)O)CCN(CC(=O)O)CC1)C(=O)N[C@@H](Cc1c[nH]c2ccccc12)C(=O)N[C@@H](CO)C(=O)N[C@@H](Cc1c[nH]cn1)C(=O)N[C@H](CCCNC(=N)N)C(=O)N[C@@H](Cc1c[nH]c2ccccc12)C(=O)N[C@@H](Cc1ccc(C(=O)c2ccccc2)cc1)C(=O)N1CCC[C@H]1C(=O)NNC(N)=O [BRU-3093] | 17000

Same assay, conditions: ratio of EC50 to BRU-2813 (EC50=0.33 μM)

Molecule | binding potency, times lower than BRU-2813
N=C(N)NCCC[C@H](NC(=O)[C@@H](Cc1ccc2ccccc2c1)NC(=O)CN1CCN(CC(=O)O)CCN(CC(=O)O)CCN(CC(=O)O)CC1)C(=O)N[C@@H](Cc1c[nH]c2ccccc12)C(=O)N[C@@H](CC(=O)O)C(=O)N[C@@H](Cc1c[nH]cn1)C(=O)N[C@H](CCCNC(=N)N)C(=O)N[C@@H](Cc1c[nH]c2ccccc12)C(=O)N[C@@H](Cc1ccc(C(=O)c2ccccc2)cc1)C(=O)N1CCC[C@H]1C(=O)NNC(N)=O [BRU-2954] ({DOTA}-[d2Nal]RWDH[dR]W[Bpa]P[azaGly]-NH2) | ~13
CN(C(=O)CN1CCN(CC(=O)O)CCN(CC(=O)O)CCN(CC(=O)O)CC1)[C@H](Cc1ccc2ccccc2c1)C(=O)N[C@@H](CCCNC(=N)N)C(=O)N[C@@H](Cc1c[nH]c2ccccc12)C(=O)N[C@@H](CO)C(=O)N[C@@H](Cc1c[nH]cn1)C(=O)N[C@H](CCCNC(=N)N)C(=O)N[C@@H](Cc1c[nH]c2ccccc12)C(=O)N[C@@H](Cc1ccc(C(=O)c2ccccc2)cc1)C(=O)N1CCC[C@H]1C(=O)NNC(N)=O [BRU-2965] | ~2

Each molecule was assayed against LHRH binding sites on EFO-27 human ovarian cancer cells (human) (assay: competition with [125I-Tyr8]BRU-2477 on EFO-27 cells). Conditions: not given.

Molecule | EC50 [nM] | times lower binding than BRU-2443 [times]
XRWSHXWXP (DO3A10CM on N-terminus; AA1 Dnal2; AA6 Darg; AA8 Bpa4; AA10 Ae (aminoethane)) [BRU-2981] | 970 | –
{DO3A10CM(3)}-[Sar]HWSH[d3Pal]W[Bpa]P[azaGly]-NH2 [BRU-2673] | 12300 | –
XRWSHXWXPGX (DO3A10CM on N-terminus; AA1 Dnal2; AA6 Darg; AA8 Bpa4; AA10 Gly-NH2 (amide)) [BRU-3005] | 660 | –
XRWSHXWXPG (DO3A10CM on N-terminus; AA1 Dnal2; AA6 Darg; AA8 Bpa4; C-terminal Gly-Aprp1h3) [BRU-2987] | 2300 | –
B1 | 8540 | –
B2 | 1130 | –
B3 | 510 | –
{DO3A10CM(3)}-[Sar]HWSH[dK](Nicotinoyl)W[Bpa]P[azaGly]-NH2 [BRU-2671] | 7200 | –
B4 | 900 | –
XHWSHXWXPX (DO3A10CM on N-terminus; AA1 Sar; AA6 Darg; AA8 Bip; AA10 azaGly-NH2) [BRU-2625] | 2140 | –
XRWSHXWXP (DO3A10CM on N-terminus; AA1 Dnal2; AA6 Darg; AA8 Bpa4; AA10 Aprp1h3) [BRU-2982] | 1130 | –
B5 | 710 | –
XHWSHXWXPX (DO3A10CM on N-terminus; AA1 Sar; AA6 Dcit; AA8 Bpa4; AA10 azaGly-NH2) [BRU-2729] | 14200 | 15
DO3A10CM-[d2Nal]RWSH[dR]W[Bpa]PGF-NH2 (reading uncertain) [BRU-2980] | 970 | –
{DO3A10CM(3)}-[Sar]HWSH[dK](Nicotinoyl)WYP[azaGly]-NH2 [BRU-2674] | 22600 | –
{DO3A10CM(3)}-[Sar]HWSH[dA]W[Bpa]P[azaGly]-NH2 [BRU-2672] | 14000 | –

Source: patent publication US20120045393A1 (priority 2009, published 2012)
